Among the data in patent US20260139006A1, “CYCLIC PEPTIDE AS INHIBITORS OF FREE-LIVING AMOEBA” (Purdue Research Foundation, priority 2024, published 2026) are IC50 values, retold here.

This series in a line: Mammalian cytotoxicity counter screening (CellTiter-Glo). The format is cell-based. The note with it: human; read-out: A549 IC50 (cytotoxicity). Background: Counterscreens check selectivity or assay interference.

Method: Cytotoxicity of the cyclic peptides was also determined by using the CellTiter-Glo 2.0® assay on A549 human lung carcinoma cells. A549 cells were seeded at a concentration of 1.6×10^4 cells/mL in 96-well plates in the presence of serially diluted compounds, as described above. DMSO (1%) and 100 μM of chlorhexidine were used as the negative and positive controls. A549 were grown in F12K medium supplemented with 10% FBS and 1% penicillin/streptomycin antibiotics. […] The total volume of each well was 100 μL, containing 10 μL compounds and 90 μL cells, and plates were incubated at 37° C., 5% CO2 for 72 hours. At the 72-hours time point, CellTiter-Glo 2.0 Reagent® was added to all the wells and read by the SpectraMax® i3X plate reader as described above. Curve fitting using non-linear regression was carried out using the average of replicates and the Levenberg-Marquardt algorithm, using DMSO as the normalization control, as defined in CDD Vault. The selectivity index (SI) was calculated by using the equation: SI=(IC50 of A549's)/(IC50 of Balamuthia mandrillaris) to determine the specificity of inhibitors.

Turning to `N=C(N)c1ccc(OCCCCCOc2ccc(C(=N)N)cc2)cc1` [pentamidine], the IC50 (as a rule, the concentration at which inhibition is half-maximal) at 72 h was 12.8 µM.
